Ends that are not written are not given here. * marks the point of attachment. Decanoyl = CCCCCCCCCC(=O)*; OPH = not defined here; CH2Cl = ClC*
Tested on: lung epethalial and macrophage cells exposed to anthrax toxin (PA and FP59)
Type: cell-based

Substance: PGluArgValArgArgOPH (PERVRR-{OPH}; not fully specified (some residues); printed as PGluArgValArgArgOPH; reading uncertain) [ERVRR-OPH]
- Protein Synthesis Inferred From ^35S incorporation: 70.9 ± 8.7%

Substance: decanoyl RVKR-CMK (Decanoyl-RVKR-CH2Cl)
- Protein Synthesis Inferred From ^35S incorporation: 86.9 ± 9.9%
